Laboratory results reported in PubChem BioAssay AID1963420 (Molecular Pharmacology Branch, DTP, NCI, 2024).
Blank lines part the entries; values can stand above or below the compound they belong to.

Test system: 494315-158-R-J1-PDC complex spheroid growth, percent test/control
Experiment: Anticancer human tumor 494315-158-R-J1-PDC patient-derived soft tissue sarcoma cell line growth inhibition [Asc]
Conditions: for IC50: curve of first compound; for viability, T/C: stronger effect = lower value
Summary of the method: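 Stromal components (HUVEC and hMSC) are co-assembled with the cancer cells into multicellular spheroids. Drugs are then added singly or paired, at concentrations falling by half-log increments from a clinically achievable maximum, capped at 10 microM without known Cmax.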
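Note: compound exposure lasted seven days after spheroids formed for three days.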

IC50 (second compound 0.03 µM): 4.19 µM | IC50 (second compound 0.0949 µM): 3.18 µM | IC50 (second compound 0.3 µM): 3.8 µM | IC50 (second compound 0.949 µM): 4.17 µM | IC50 (second compound 3 µM): 4.11 µM
SMILES: C=C(F)C(=O)N1CCN(c2nc(OCC3CCCN3C)nc3c2CCN(c2cccc4cccc(Cl)c24)C3)CC1CC#N (stereo not given) + CCN1C(C(=O)NC23CCC(C(=O)O)(CC2)CC3)C(c2cccc(Cl)c2F)C2(C(=O)Nc3cc(Cl)ccc32)C12CCCCC2
viability, T/C (second compound 0.03 µM, first compound 0.0316 µM): 106% | viability, T/C (second compound 0.03 µM, first compound 0.1 µM): 103% | viability, T/C (second compound 0.03 µM, first compound 0.316 µM): 105% | viability, T/C (second compound 0.03 µM, first compound 1 µM): 118% | viability, T/C (second compound 0.03 µM, first compound 3.16 µM): 66% | viability, T/C (second compound 0.03 µM, first compound 10 µM): 0.19% | viability, T/C (second compound 0.0949 µM, first compound 0.0316 µM): 99.9% | viability, T/C (second compound 0.0949 µM, first compound 0.1 µM): 101% | viability, T/C (second compound 0.0949 µM, first compound 0.316 µM): 93.2% | viability, T/C (second compound 0.0949 µM, first compound 1 µM): 95.2% | viability, T/C (second compound 0.0949 µM, first compound 3.16 µM): 50.2% | viability, T/C (second compound 0.0949 µM, first compound 10 µM): 0.16% | viability, T/C (second compound 0.3 µM, first compound 0.0316 µM): 110% | viability, T/C (second compound 0.3 µM, first compound 0.1 µM): 93% | viability, T/C (second compound 0.3 µM, first compound 0.316 µM): 80.3% | viability, T/C (second compound 0.3 µM, first compound 1 µM): 111% | viability, T/C (second compound 0.3 µM, first compound 3.16 µM): 59.5% | viability, T/C (second compound 0.3 µM, first compound 10 µM): 0.19% | viability, T/C (second compound 0.949 µM, first compound 0.0316 µM): 87.1% | viability, T/C (second compound 0.949 µM, first compound 0.1 µM): 109% | viability, T/C (second compound 0.949 µM, first compound 0.316 µM): 95.9% | viability, T/C (second compound 0.949 µM, first compound 1 µM): 76.7% | viability, T/C (second compound 0.949 µM, first compound 3.16 µM): 70% | viability, T/C (second compound 0.949 µM, first compound 10 µM): 0.2% | viability, T/C (second compound 3 µM, first compound 0.0316 µM): 96.7% | viability, T/C (second compound 3 µM, first compound 0.1 µM): 102% | viability, T/C (second compound 3 µM, first compound 0.316 µM): 100% | viability, T/C (second compound 3 µM, first compound 1 µM): 87.2% | viability, T/C (second compound 3 µM, first compound 3.16 µM): 65.6% | viability, T/C (second compound 3 µM, first compound 10 µM): 0.27%

IC50 (second compound 0.01 µM): > 1 µM | IC50 (second compound 0.0316 µM): 0.927 µM | IC50 (second compound 0.1 µM): > 1 µM | IC50 (second compound 0.316 µM): < 0.00316 µM | IC50 (second compound 1 µM): < 0.00316 µM
SMILES: O=C(c1ccc(F)c(F)c1Nc1ccc(I)cc1F)N1CC(O)([C@@H]2CCCCN2)C1 + CNC(C)C(=O)NC1CN(S(=O)(=O)c2cccc(S(=O)(=O)N3CCC4CCC(C(=O)NC(c5ccccc5)c5ccccc5)N4C(=O)C(NC(=O)C(C)NC)C3)c2)CCC2CCC(C(=O)NC(c3ccccc3)c3ccccc3)N2C1=O
viability, T/C (second compound 0.01 µM, first compound 0.00316 µM): 83.5% | viability, T/C (second compound 0.01 µM, first compound 0.01 µM): 75.5% | viability, T/C (second compound 0.01 µM, first compound 0.0316 µM): 85.8% | viability, T/C (second compound 0.01 µM, first compound 0.1 µM): 96.7% | viability, T/C (second compound 0.01 µM, first compound 0.316 µM): 97.3% | viability, T/C (second compound 0.01 µM, first compound 1 µM): 62.9% | viability, T/C (second compound 0.0316 µM, first compound 0.00316 µM): 72.8% | viability, T/C (second compound 0.0316 µM, first compound 0.01 µM): 68.3% | viability, T/C (second compound 0.0316 µM, first compound 0.0316 µM): 74.3% | viability, T/C (second compound 0.0316 µM, first compound 0.1 µM): 93.1% | viability, T/C (second compound 0.0316 µM, first compound 0.316 µM): 87.8% | viability, T/C (second compound 0.0316 µM, first compound 1 µM): 47.9% | viability, T/C (second compound 0.1 µM, first compound 0.00316 µM): 53.2% | viability, T/C (second compound 0.1 µM, first compound 0.01 µM): 61.4% | viability, T/C (second compound 0.1 µM, first compound 0.0316 µM): 65.8% | viability, T/C (second compound 0.1 µM, first compound 0.1 µM): 87.5% | viability, T/C (second compound 0.1 µM, first compound 0.316 µM): 92.7% | viability, T/C (second compound 0.1 µM, first compound 1 µM): 59.9% | viability, T/C (second compound 0.316 µM, first compound 0.00316 µM): 46.7% | viability, T/C (second compound 0.316 µM, first compound 0.01 µM): 60.3% | viability, T/C (second compound 0.316 µM, first compound 0.0316 µM): 57.2% | viability, T/C (second compound 0.316 µM, first compound 0.1 µM): 67.5% | viability, T/C (second compound 0.316 µM, first compound 0.316 µM): 72.2% | viability, T/C (second compound 0.316 µM, first compound 1 µM): 58.3% | viability, T/C (second compound 1 µM, first compound 0.00316 µM): 47.9% | viability, T/C (second compound 1 µM, first compound 0.01 µM): 52% | viability, T/C (second compound 1 µM, first compound 0.0316 µM): 67.1% | viability, T/C (second compound 1 µM, first compound 0.1 µM): 66.3% | viability, T/C (second compound 1 µM, first compound 0.316 µM): 76.2% | viability, T/C (second compound 1 µM, first compound 1 µM): 46.7%
